Assay results: the NIST ThermoML archive (doi:10.1016/j.tca.2008.06.010)
Several values for one entry are separate records, joined by “and”; a condition that tells them apart may be missing. Equal values may be shown once. Numbers after ± are expanded uncertainties.

Assays:
[1] = 293 K; 101.33 kPa; Crystal; X-ray diffraction
[2] = molar heat capacity at constant pressure; conditions: 101.33 kPa, Crystal

[Nb+5].[Nb+5].[O-2].[O-2].[O-2].[O-2].[O-2].[O-2].[O-2].[Sr+2].[Sr+2] [niobium strontium oxide (Nb2Sr2O7)]
Conditions	mass density [kg/m3]
[1]	5206 ± 9

molar heat capacity at constant pressure, [2]
Conditions	Relaxation time	Small sample (50 mg) DSC
2 K	0.006 ± 0.001 J/K/mol	–
2.1 K	0.005 ± 0.001 J/K/mol	–
2.2 K	0.006 ± 0.001 J/K/mol	–
2.4 K	0.007 ± 0.001 J/K/mol	–
2.5 K	0.008 ± 0.001 J/K/mol	–
2.7 K	0.009 ± 0.001 J/K/mol	–
2.9 K	0.01 ± 0.001 J/K/mol	–
3.1 K	0.012 ± 0.001 J/K/mol	–
3.2 K	0.015 ± 0.001 J/K/mol	–
3.5 K	0.017 ± 0.001 J/K/mol	–
3.7 K	0.02 ± 0.001 J/K/mol	–
3.9 K	0.024 ± 0.001 J/K/mol	–
4.2 K	0.03 ± 0.001 J/K/mol	–
4.4 K	0.035 ± 0.001 J/K/mol	–
4.7 K	0.043 ± 0.001 J/K/mol	–
5 K	0.053 ± 0.001 J/K/mol	–
5.4 K	0.064 ± 0.002 J/K/mol	–
5.7 K	0.079 ± 0.002 J/K/mol	–
6.1 K	0.097 ± 0.002 J/K/mol	–
6.5 K	0.12 ± 0.01 J/K/mol	–
6.9 K	0.15 ± 0.01 J/K/mol	–
7.4 K	0.19 ± 0.01 J/K/mol	–
7.9 K	0.23 ± 0.01 J/K/mol	–
8.4 K	0.28 ± 0.01 J/K/mol	–
8.9 K	0.35 ± 0.01 J/K/mol	–
9.5 K	0.43 ± 0.01 J/K/mol	–
10.1 K	0.53 ± 0.01 J/K/mol	–
10.8 K	0.65 ± 0.01 J/K/mol	–
11.5 K	0.8 ± 0.02 J/K/mol	–
12.2 K	0.99 ± 0.02 J/K/mol	–
13 K	1.21 ± 0.03 J/K/mol	–
13.9 K	1.48 ± 0.03 J/K/mol	–
14.8 K	1.82 ± 0.04 J/K/mol	–
15.7 K	2.2 ± 0.05 J/K/mol	–
16.7 K	2.69 ± 0.06 J/K/mol	–
17.8 K	3.28 ± 0.07 J/K/mol	–
19 K	3.97 ± 0.08 J/K/mol	–
20.2 K	4.78 ± 0.1 J/K/mol	–
21.5 K	5.72 ± 0.12 J/K/mol	–
22.9 K	6.83 ± 0.14 J/K/mol	–
24.3 K	8.09 ± 0.16 J/K/mol	–
25.9 K	9.56 ± 0.19 J/K/mol	–
27.6 K	11.22 ± 0.23 J/K/mol	–
29.3 K	13.09 ± 0.26 J/K/mol	–
31.2 K	15.16 ± 0.3 J/K/mol	–
33.3 K	17.47 ± 0.35 J/K/mol	–
35.4 K	20.05 ± 0.4 J/K/mol	–
37.7 K	22.84 ± 0.46 J/K/mol	–
40.2 K	25.86 ± 0.52 J/K/mol	–
42.7 K	29.26 ± 0.59 J/K/mol	–
45.5 K	32.91 ± 0.66 J/K/mol	–
48.4 K	36.66 ± 0.73 J/K/mol	–
51.6 K	40.57 ± 0.81 J/K/mol	–
54.9 K	44.95 ± 0.9 J/K/mol	–
58.4 K	49.55 ± 0.99 J/K/mol	–
62.2 K	54.39 ± 1.1 J/K/mol	–
66.2 K	59.43 ± 1.2 J/K/mol	–
70.4 K	64.72 ± 1.3 J/K/mol	–
75 K	70.3 ± 1.4 J/K/mol	–
79.8 K	76.11 ± 1.5 J/K/mol	–
84.9 K	82.05 ± 1.6 J/K/mol	–
90.4 K	88.37 ± 1.8 J/K/mol	–
96.2 K	95.08 ± 1.9 J/K/mol	–
102.4 K	101.57 ± 2 J/K/mol	–
115.9 K	115.3 ± 2.3 J/K/mol	–
123.4 K	122.51 ± 2.5 J/K/mol	–
131.3 K	129.76 ± 2.6 J/K/mol	–
139.7 K	137.01 ± 2.7 J/K/mol	–
148.6 K	144.41 ± 2.9 J/K/mol	–
158.2 K	152.04 ± 3 J/K/mol	–
168.3 K	158.82 ± 3.2 J/K/mol	–
179 K	166.7 ± 3.3 J/K/mol	–
190.5 K	173.8 ± 3.5 J/K/mol	–
201.5 K	179.2 ± 3.6 J/K/mol	–
203 K	180.19 ± 3.6 J/K/mol	–
203.6 K	180.24 ± 3.6 J/K/mol	–
205.7 K	181.22 ± 3.6 J/K/mol	–
207.7 K	181.67 ± 3.6 J/K/mol	–
209.7 K	183.21 ± 3.7 J/K/mol	–
211.7 K	184.53 ± 3.7 J/K/mol	–
213.8 K	185.64 ± 3.7 J/K/mol	–
215.8 K	187.13 ± 3.7 J/K/mol	–
217.8 K	188.51 ± 3.8 J/K/mol	–
219.8 K	190.01 ± 3.8 J/K/mol	–
221.8 K	191.02 ± 3.8 J/K/mol	–
223.8 K	191.53 ± 3.8 J/K/mol	–
225.9 K	192.06 ± 3.8 J/K/mol	–
227.9 K	193.45 ± 3.9 J/K/mol	–
229.9 K	193.04 ± 3.9 J/K/mol	–
231.9 K	193.63 ± 3.9 J/K/mol	–
233.9 K	194.26 ± 3.9 J/K/mol	–
235.9 K	196.53 ± 3.9 J/K/mol	–
238 K	196.42 ± 3.9 J/K/mol	–
240 K	197.53 ± 4 J/K/mol	–
242 K	197.69 ± 4 J/K/mol	–
244 K	197.75 ± 4 J/K/mol	–
246.1 K	198.29 ± 4 J/K/mol	–
248.1 K	200 ± 4 J/K/mol	–
250.1 K	200.61 ± 4 J/K/mol	–
252.1 K	201.6 ± 4 J/K/mol	–
254.1 K	202.35 ± 4 J/K/mol	–
256.1 K	203.13 ± 4.1 J/K/mol	–
258.1 K	203.04 ± 4.1 J/K/mol	201.78 ± 4 J/K/mol and 201.57 ± 4 J/K/mol
260.2 K	205.33 ± 4.1 J/K/mol	–
262.2 K	206.4 ± 4.1 J/K/mol	–
264.2 K	207.59 ± 4.2 J/K/mol	–
266.2 K	208.79 ± 4.2 J/K/mol	–
268.2 K	209.43 ± 4.2 J/K/mol	–
268.3 K	–	206.1 ± 4.1 J/K/mol and 204.8 ± 4.1 J/K/mol
270.2 K	210.44 ± 4.2 J/K/mol	–
272.2 K	211.82 ± 4.2 J/K/mol	–
274.3 K	212.04 ± 4.2 J/K/mol	–
276.3 K	212.05 ± 4.2 J/K/mol	–
278.3 K	212.41 ± 4.2 J/K/mol	–
278.5 K	–	208.78 ± 4.2 J/K/mol and 208.32 ± 4.2 J/K/mol
280.3 K	212.81 ± 4.3 J/K/mol	–
282.3 K	212.94 ± 4.3 J/K/mol	–
284.3 K	213.33 ± 4.3 J/K/mol	–
286.3 K	213.1 ± 4.3 J/K/mol	–
288.3 K	213.9 ± 4.3 J/K/mol	–
288.7 K	–	211.87 ± 4.2 J/K/mol and 212.56 ± 4.2 J/K/mol
290.4 K	214.19 ± 4.3 J/K/mol	–
292.4 K	214.81 ± 4.3 J/K/mol	–
294.4 K	215.93 ± 4.3 J/K/mol	–
296.4 K	216.6 ± 4.3 J/K/mol	–
298.4 K	219.18 ± 4.4 J/K/mol	–
298.9 K	–	216.24 ± 4.3 J/K/mol [middle of 10 runs]
300.4 K	218.65 ± 4.4 J/K/mol	–
309.1 K	–	220.12 ± 4.4 J/K/mol [middle of 11 runs]
319.4 K	–	223.23 ± 4.5 J/K/mol [middle of 9 runs]
329.6 K	–	225.99 ± 4.5 J/K/mol [middle of 11 runs]
339.8 K	–	228.99 ± 4.6 J/K/mol [middle of 10 runs]
350 K	–	230.93 ± 4.6 J/K/mol [middle of 11 runs]
